{
  "source": "ChEMBL document CHEMBL3832057",
  "tested_on": "Homo sapiens",
  "experiment": "Evaluation of pharmacokinetic parameters for Rifampin in serum following single oral administration of 10 mg/kg Rifampin to pediatric patients.",
  "assay_type": "ADME, organism-based",
  "parameters": "dose 600 mg, dose 10 mg/kg, route oral",
  "settings": "in vivo, dosed compound id 35, dosed compound name RIFAMPICIN, gender male and female, regimen Single dose, tissue Serum",
  "data": [
    {"smiles": "CO[C@H]1/C=C/O[C@@]2(C)Oc3c(C)c(O)c4c(O)c(c(/C=N/N5CCN(C)CC5)c(O)c4c3C2=O)NC(=O)/C(C)=C\\C=C\\[C@H](C)[C@H](O)[C@@H](C)[C@@H](O)[C@@H](C)[C@H](OC(C)=O)[C@@H]1C", "note": "[RIFAMPIN]", "values": [
      {"measurement": "Tmax", "value": 1, "unit": "h"}
    ]}
  ]
}
